pIC50: −log10 of the molar value. Where two headings read alike, the source gives them in different places.
How the values were obtained:
Jak3 = Jak3 (Homo sapiens (Human), UniProt P52333); assay: HTRF kinase assay, Jak3; format: biochemical; conditions: enzymatic determination
Description: (§1) Most of the kinases tested in this study were cloned, expressed and purified in the facilities of the inventors. They were expressed either as N-terminus hexahistidine-, hexahistidine-asparagine- or GST-tagged enzymes in a baculovirus or in a Colibacille expression system. Remaining enzymes (JAKs) were purchased from Millipore or Proqinase. For each enzyme, steady state kinetic parameters were determined and validated with known inhibitors.
The analysis of the effect of compounds on kinase activity was assessed with the HTRF® KinEASE assay (Cisbio International), an immuno-assay based on the quantification of the level of phosphorylation of a biotinylated peptide substrate using anti-phospho-specific antibody labeled with Europium (Eu^3+) cryptate. This assay comprises two steps: —an enzymatic step, during which the peptide substrate, the kinase, ATP, Mg^2+ and/or Mn^2+ are incubated with varying concentration of drug (from 0 to 10 μM); —a detection step, at the end of the reaction (stopped by addition of EDTA which chelates Mg^2+), the antibody anti-phospho peptide-Eu^3+ (emission 620 nm) and streptavidin XL-665 (emission 665 nm) are added to the reaction mix. […] Results are expressed in delta fluorescence (DF) unit defined as follow DF %=[(ratio−ratio blank)/(ratio blank)]*100, where ratio=(665 nm/620 nm)*10^4. […]

HepG2 tumor cell line = assay: Mitochondrial ToxGlo assay (ATP production and cytotoxicity); format: cell-based; conditions: HepG2, 20 μM, 2 hours
Description: Drug-induced mitochondrial toxicity was evaluated by monitoring oxygen consumption using a Clark oxygen electrode on mitochondria isolated from heart of healthy mouse (Mitologics S.A.S, France). Briefly, isolated mitochondria are placed at 37° C. in a sealed chamber that is exposed to the surface of a Clark oxygen electrode. The presence of oxygen caused the electrode to deliver a current to the oxygen monitor, which amplified the current and converted it to a voltage output that was directly proportional to the concentration of oxygen in the chamber. Drug-induced mitochondrial toxicity was also evaluated by monitoring mitochondrial ATP production using a cell-based assay (Mitochondrial ToxGlo™ assay, Promega Corporation (cat#G8000)). […] The test was performed on HepG2 tumor cell line grown in galactose medium in order to force the cancer cells to produce ATP via oxidative phosphorylation (crabtree effect). Cells were treated for 2 hours with 20 μM drug before analysis of ATP detection (Luminescent signal) and cytotoxicity (Fluorescent signal) as described by manufacturers using PHERAstar and POLARstar OMEGA microplate readers respectively (BMG Labteck Sari).

SYK kinase = SYK kinase (Homo sapiens (Human), UniProt P43405); assay: In vitro SYK inhibition assay (HTRF kinase assay); format: biochemical
Description: SYK kinase was purified as a full length protein in a baculovirus system near homogeneity. All kinase assays were performed with the Kinase TK (tyrosine kinase) HTRF (Homogeneous Time Resolved Fluorescence) assay developed by Cisbio international. […] Reactions were initiated upon introduction of the enzyme and terminated with the addition of one reaction volume (25 μl) of HTRF detection buffer. Plates were incubated for one hour at room temperature and the time resolved Fluorescence resonance energy transfer signal was measured in a Pherastar FS microplate reader (BMG Labtech).
as §1
The analysis of the effect of compounds on kinase activity was assessed with the HTRF® KinEASE assay (Cisbio International), an immuno-assay based on the quantification of the level of phosphorylation of a biotinylated peptide substrate using anti-phospho-specific antibody labeled with Europium (Eu^3+) cryptate. This assay comprises two steps: —an enzymatic step, during which the peptide substrate, the kinase, ATP, Mg^2+ and/or Mn^2+ are incubated with varying concentration of drug (from 0 to 10 μM); —a detection step, at the end of the reaction (stopped by addition of EDTA which chelates Mg^2+), the antibody anti-phospho peptide-Eu^3+ (emission 620 nm) and streptavidin XL-665 (emission 665 nm) are added to the reaction mix. After incubation, the obtained signal is proportional to the concentration of phosphorylated peptide in the sample. All measurements were performed on a BMG Labtech Pherastar FS apparatus. Results are expressed in delta fluorescence (DF) unit defined as follow DF %=[(ratio−ratio blank)/(ratio blank)]*100, where ratio=(665 nm/620 nm)*10^4. Each experiment was performed in duplicate and repeated two or three times.

hERG = hERG (Homo sapiens (Human), UniProt Q12809); assay: Predictor hERG Fluorescence Polarization binding assay; conditions: 100% = E-4031
Description: The activity of the test compounds on the hERG potassium channel was evaluated using a binding assay provided by Invitrogen (Predictor hERG Fluorescence Polarization assay Kit PV5365). The test was performed at a single concentration of 3 μM of drug. […] The data are expressed as a percentage of hERG inhibition, 100% corresponding to the inhibition obtained with E-4031 and 0% with the solvent DMSO (negative control).

human cardiomyocytes = assay: Intracellular ROS in human cardiomyocytes (CM-H2DCFDA); format: cell-based; conditions: 10 μM, 8 hours
Description: 2×10^3 human cardiomyocytes (Promocell C-12810) or 4×10^4 rat neonatal cardiac myocytes (R-CM-561 Lonza) were seeded per well of a 96-well plate (black wall for fluorimetry usage (655090 Greiner Bio one)) 24 hours before drug treatment. Treatment was initiated by addition of a drug solution for a 10 μM final concentration. Doxorubicin was used at 5 μM as positive control for the induction of ROS. After 8 hours treatment with drugs, cells were loaded with 10 μM of CM-H2DCFDA (C6827 Invitrogen) for 1 hour, followed by 2 washes in PBS. CM-H2DCFDA is a membrane permeable reagent that can be enzymatically converted to dichlorodihydrofluorescein (DCF) in the presence of ROS. Fluorescent DCF was detected using a fluorescence spectrophotometer (BMG Labtech) with excitation of 485 nm and emission of 560 nm. The results were expressed as a relative percent of DCF-fluorescence in control cells.
Monitoring drug-induced increase in the production of reactive oxygen species (ROS) in cardiomyocyte may be important to predict the cardiotoxic side effects of a drug (Table 11). The production of ROS in human and rat cardiomyocytes was studied following 8 hours drug treatment at concentration of 10 μM. The results were expressed as a percent relative to the production of ROS induced by the cardiotoxic chemotherapeutic agent doxorubicin (100%).

[1] = Early bioavailability determination (plasma PK); format: in vivo, Sprague Dawley rats; conditions: rat; for AUC: read-out: AUC24
Description: Early screen was conducted to estimate plasma concentrations of test compounds obtained after oral or intravenous administration to Sprague Dawley rats. DMSO was used as vehicle for oral and intravenous administration. In short, 4 male Sprague Dawley rats around 5 weeks old were used. Drugs were administered PO (10 mg/kg) or IV (2 mg/kg). Blood samples were collected at defined time schedule and analysed using LC-MS/MS determination for PK parameters calculations.

KIT wild-type = KIT wild-type (Homo sapiens (Human), UniProt P10721); assay: Cell-based proliferation assay on BaF3 model, KIT wild-type
Description: Cell-based proliferation and viability assay CellTiter-Bleue cell-based survival/proliferation assay (Promega G8080) was performed on BaF3 models.
A total of 1.10^4 cells/well/50 μl were seeded in a 96-wells plate. Treatment was initiated by addition of a 2× drug solution of ½ serial dilutions ranging from 0 to 10 μM. Cells were grown for 48-72 h at 37° C. and then incubated with 10 μl/well of Promega CellTiter-Bleue reagent for 4 h at 37° C. The amount of formazan dye formed was quantified by its absorbance at 450 nm using a scanning multiwell spectrophotometer (POLARstar Omega, BMG labtech, France). A blank well without cells was used as a background control for the spectrophotometer and all assays were performed in duplicates and the experiments were repeated at least twice.

[2] = male, Sprague Dawley, plasma, IV, 2 mg/kg, mean
[3] = male, Sprague Dawley, plasma, PO, 10 mg/kg, mean

Chain of Jak3 (P52333 whole entry): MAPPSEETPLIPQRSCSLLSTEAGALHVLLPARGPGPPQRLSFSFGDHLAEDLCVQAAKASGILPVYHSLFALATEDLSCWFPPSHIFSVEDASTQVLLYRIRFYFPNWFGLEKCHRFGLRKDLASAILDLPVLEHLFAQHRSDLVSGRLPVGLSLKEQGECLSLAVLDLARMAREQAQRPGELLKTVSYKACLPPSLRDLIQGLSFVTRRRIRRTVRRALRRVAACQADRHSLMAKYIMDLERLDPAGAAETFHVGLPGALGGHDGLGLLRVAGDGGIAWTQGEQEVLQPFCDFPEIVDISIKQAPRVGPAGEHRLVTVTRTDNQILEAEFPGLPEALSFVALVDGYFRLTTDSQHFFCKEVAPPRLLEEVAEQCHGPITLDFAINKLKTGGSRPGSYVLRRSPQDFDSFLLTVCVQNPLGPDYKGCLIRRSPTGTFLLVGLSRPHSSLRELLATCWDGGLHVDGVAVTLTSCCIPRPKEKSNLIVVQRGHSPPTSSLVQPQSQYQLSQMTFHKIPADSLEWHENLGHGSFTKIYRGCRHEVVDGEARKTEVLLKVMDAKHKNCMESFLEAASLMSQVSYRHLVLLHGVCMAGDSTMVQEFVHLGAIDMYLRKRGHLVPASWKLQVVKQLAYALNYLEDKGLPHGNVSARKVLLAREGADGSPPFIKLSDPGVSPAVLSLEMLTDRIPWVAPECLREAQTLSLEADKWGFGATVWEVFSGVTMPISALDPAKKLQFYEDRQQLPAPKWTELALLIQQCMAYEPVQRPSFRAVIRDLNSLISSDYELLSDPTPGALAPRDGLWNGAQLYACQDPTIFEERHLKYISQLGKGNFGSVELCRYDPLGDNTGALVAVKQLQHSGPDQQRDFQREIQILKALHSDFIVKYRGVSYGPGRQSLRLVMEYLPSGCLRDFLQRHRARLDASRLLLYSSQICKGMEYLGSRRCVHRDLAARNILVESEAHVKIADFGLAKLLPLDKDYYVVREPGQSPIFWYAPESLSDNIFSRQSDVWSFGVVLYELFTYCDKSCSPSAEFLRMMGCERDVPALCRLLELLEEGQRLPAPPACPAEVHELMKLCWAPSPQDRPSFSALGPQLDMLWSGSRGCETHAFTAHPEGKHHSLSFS
Chain of hERG (Q12809 whole entry): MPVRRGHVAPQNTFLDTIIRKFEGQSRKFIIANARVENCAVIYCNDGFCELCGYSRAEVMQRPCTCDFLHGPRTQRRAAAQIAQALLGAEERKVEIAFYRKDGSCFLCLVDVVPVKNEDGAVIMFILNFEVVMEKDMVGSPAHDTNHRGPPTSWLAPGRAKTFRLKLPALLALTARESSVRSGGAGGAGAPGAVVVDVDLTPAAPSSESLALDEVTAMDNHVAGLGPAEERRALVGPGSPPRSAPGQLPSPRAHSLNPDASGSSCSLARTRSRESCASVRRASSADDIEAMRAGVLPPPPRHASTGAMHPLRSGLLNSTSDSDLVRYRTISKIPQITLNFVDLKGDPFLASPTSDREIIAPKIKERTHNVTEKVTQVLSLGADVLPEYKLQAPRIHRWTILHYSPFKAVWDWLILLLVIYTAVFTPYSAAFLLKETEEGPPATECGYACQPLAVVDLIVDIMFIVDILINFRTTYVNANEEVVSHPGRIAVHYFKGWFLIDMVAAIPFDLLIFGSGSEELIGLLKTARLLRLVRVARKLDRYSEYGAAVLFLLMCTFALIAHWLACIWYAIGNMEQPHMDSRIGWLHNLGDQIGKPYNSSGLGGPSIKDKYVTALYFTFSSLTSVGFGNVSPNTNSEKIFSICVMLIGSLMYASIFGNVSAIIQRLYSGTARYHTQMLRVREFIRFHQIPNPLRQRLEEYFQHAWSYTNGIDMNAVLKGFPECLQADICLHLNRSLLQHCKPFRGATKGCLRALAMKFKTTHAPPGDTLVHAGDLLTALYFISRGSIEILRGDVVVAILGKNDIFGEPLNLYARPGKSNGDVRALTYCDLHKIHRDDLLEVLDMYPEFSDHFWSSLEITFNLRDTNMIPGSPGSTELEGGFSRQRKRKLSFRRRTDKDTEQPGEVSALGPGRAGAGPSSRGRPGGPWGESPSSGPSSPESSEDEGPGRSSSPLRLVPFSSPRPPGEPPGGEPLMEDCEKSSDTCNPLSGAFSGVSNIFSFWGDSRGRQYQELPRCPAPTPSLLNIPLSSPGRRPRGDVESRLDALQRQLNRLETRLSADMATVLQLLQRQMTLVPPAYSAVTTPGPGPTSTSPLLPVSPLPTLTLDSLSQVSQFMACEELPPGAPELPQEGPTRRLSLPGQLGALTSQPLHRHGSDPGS
Chain of KIT wild-type (P10721 26-976, species assumed): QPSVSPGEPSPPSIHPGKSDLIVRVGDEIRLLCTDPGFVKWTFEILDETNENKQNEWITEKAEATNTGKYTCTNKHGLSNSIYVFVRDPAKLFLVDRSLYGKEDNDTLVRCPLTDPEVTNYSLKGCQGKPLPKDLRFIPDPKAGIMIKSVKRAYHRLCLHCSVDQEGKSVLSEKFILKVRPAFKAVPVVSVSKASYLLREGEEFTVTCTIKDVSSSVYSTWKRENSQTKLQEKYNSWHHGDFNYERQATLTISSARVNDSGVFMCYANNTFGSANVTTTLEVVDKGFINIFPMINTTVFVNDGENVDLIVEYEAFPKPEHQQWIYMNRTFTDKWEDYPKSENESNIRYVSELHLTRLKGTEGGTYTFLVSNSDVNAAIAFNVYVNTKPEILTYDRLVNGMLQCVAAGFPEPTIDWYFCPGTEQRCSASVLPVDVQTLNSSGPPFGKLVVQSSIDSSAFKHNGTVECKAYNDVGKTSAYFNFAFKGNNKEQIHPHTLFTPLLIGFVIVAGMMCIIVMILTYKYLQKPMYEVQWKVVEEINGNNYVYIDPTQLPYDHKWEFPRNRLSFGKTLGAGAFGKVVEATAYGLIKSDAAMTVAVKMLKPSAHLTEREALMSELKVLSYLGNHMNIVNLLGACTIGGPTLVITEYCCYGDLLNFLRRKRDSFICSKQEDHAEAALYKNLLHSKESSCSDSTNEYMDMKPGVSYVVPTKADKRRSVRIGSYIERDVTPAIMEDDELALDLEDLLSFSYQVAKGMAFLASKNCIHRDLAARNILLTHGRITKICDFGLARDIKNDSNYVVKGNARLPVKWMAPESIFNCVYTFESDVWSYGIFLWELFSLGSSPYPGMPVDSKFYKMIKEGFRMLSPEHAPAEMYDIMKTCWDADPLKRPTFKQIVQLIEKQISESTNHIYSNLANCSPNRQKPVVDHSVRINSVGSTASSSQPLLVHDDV

## Cc1ccnc(Nc2cccc(-c3cnc(N4CCNC(=O)C45CC5)o3)c2)n1 [Compound 001, 4-{5-[3-(4-Methyl-pyrimidin-2-ylamino)-phenyl]-oxazol-2-yl}-4,7-diaza-spiro[2.5]octan-8-one]
Jak3
  pIC50: 4.70
HepG2 tumor cell line
  ATP production relative to DMSO (100%) Mito ToxGlo: 104%
  Cytotoxicity relative to DMSO (0%) Mito ToxGlo: 11%
HepG2 tumor cell line; listed as compound 001
  ATP production relative to DMSO (100%) Mito ToxGlo: 104%
  Cytotoxicity relative to DMSO (0%) Mito ToxGlo: 11%
SYK kinase; enzymatic determination, read-out: Kinase activity profile IC50 Syk
  pIC50: 7.39
SYK kinase; read-out: Syk (IC50)
  pIC50: > 6.30
hERG
  inhibition at 3 µM: 0%
Human cardiomyocytes
  ROS production, activity relative to doxorubicine (100%), Hu-CM: 0%
[1]; PO, 10 mg/kg, mean
  Cl: 17 mL/min/kg
  Vd: 2.9 L/kg
[1]; [2]
  Cmax: 869 ng/mL
  Tmax: 0.083 h
  clearance: 15 mL/min/kg
  half-life: 0.6 h
  AUC: 1060 ng·h/mL
[1]; male, Sprague Dawley, plasma, IV, 2 mg/kg, mean, read-out: Vd
  Vd: 0.9 L/kg
[1]; male, Sprague Dawley, plasma, PO 10 mg/kg vs IV 2 mg/kg, read-out: F24 (absolute bioavailability)
  bioavailability: 97.5%
[1]; [3]
  Cmax: 122 ng/mL
  Tmax: 3 h
  half-life: 2.1 h
  AUC: 1030 ng·h/mL
KIT wild-type
  pIC50: 5.00
